The target in test [1] is 72 kDa type IV collagenase (Homo sapiens, UniProt P08253). Put plainly: Dose Response validation of uHTS RPN11 inhibitor hits using a MMP-2 Fluorescence assay. In kind it is functional.
Test [2] concerns the target T1, DNA repair protein RAD52 homolog (Homo sapiens, UniProt P43351).
T1 sequence (P43351 whole entry): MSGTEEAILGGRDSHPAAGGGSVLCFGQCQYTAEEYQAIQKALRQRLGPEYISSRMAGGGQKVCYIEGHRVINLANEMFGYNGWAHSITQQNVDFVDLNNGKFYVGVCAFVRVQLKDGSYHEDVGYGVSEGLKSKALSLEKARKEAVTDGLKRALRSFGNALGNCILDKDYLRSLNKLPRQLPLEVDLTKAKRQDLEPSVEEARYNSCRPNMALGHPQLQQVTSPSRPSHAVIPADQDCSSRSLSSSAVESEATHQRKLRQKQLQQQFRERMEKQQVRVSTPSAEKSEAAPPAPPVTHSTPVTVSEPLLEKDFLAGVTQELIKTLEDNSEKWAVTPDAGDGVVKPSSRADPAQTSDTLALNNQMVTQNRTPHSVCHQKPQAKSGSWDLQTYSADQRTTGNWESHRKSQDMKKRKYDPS
Format: functional, biochemical.

For test [3], the target named is T2, Short transient receptor potential channel 4 (Mus musculus, UniProt Q9QUQ5).
T2 sequence (Q9QUQ5 whole entry): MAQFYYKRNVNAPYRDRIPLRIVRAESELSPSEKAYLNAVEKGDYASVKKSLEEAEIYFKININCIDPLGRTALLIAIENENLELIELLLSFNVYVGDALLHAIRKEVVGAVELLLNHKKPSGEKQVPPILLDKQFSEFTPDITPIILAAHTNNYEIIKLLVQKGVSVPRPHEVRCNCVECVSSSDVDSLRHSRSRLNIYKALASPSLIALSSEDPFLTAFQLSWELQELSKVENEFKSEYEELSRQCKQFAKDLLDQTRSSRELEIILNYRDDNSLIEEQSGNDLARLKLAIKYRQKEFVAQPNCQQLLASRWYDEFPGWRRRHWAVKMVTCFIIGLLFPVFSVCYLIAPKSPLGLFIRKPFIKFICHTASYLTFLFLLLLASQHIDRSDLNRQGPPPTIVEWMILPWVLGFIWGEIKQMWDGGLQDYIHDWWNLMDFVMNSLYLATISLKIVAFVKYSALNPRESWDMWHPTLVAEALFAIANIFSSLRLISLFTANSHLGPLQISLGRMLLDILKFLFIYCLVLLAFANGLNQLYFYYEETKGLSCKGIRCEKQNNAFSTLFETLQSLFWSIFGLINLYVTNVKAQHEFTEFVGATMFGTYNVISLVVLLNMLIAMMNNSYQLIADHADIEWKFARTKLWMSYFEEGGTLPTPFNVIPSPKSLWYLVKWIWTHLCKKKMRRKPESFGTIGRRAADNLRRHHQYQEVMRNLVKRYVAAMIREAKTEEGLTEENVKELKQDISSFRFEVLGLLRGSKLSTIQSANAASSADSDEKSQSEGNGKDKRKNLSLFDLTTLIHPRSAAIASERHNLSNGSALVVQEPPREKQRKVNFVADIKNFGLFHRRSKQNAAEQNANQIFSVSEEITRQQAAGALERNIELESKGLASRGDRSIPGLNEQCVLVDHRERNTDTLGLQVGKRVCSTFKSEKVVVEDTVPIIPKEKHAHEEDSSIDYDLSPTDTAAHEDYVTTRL
The experiment in a line: mouse TRPC4 channel activators, dose response, cell-based, HEK293 TRPC4/mu-opioid, Fluo-4 calcium (AID 434937). Format: functional.

Test [4] can be described thus: inhibitors of firefly luciferase expression or activity, dose response, H4 neuroglioma cells, luminescence (AID 1990). In kind it is functional, cell-based.
Test [5] in a line: NIH-3T3 fibroblast cytotoxicity, dose response, cytotoxicity control, cell-based, fluorescence, Alamar Blue, secondary assay (AID 2327).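 Also: NIH-3T3 mouse fibroblasts cultured with fluconazole at 8 µg/mL.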 In kind it is functional. In general terms: The colour change of resazurin is a common sign of viable cells or microbes.
Test [6] deals with INS1. The experiment in a line: beta cell apoptosis inhibitors, cytokine rescue, dose response, luminescence, retest (AID 449756).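 Also: cell death triggered by IL-1 beta plus TNF-alpha plus IFN-gamma mixture; protective hits raise ATP signal compared with cytokine alone wells.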 In kind it is functional, cell-based. The conditions noted are these: Rattus norvegicus.
For test [7], the system named is Streptococcus. Put plainly: Group A Streptococcus viability loss, dose response, counter-screen for streptokinase expression inhibitor project, luminescence, BacTiterGlo (AID 1915).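 Also: potency for reduction of bacterial viability or growth.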 In kind it is functional, organism-based.
The target of test [8] is T3, Ubiquitin-conjugating enzyme E2 N (Homo sapiens, UniProt P61088).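 Also: Dose-response confirmation in a TR-FRET assay detecting UBC13-driven polyubiquitin chain formation, inhibition measured.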
T3 sequence (P61088 whole entry): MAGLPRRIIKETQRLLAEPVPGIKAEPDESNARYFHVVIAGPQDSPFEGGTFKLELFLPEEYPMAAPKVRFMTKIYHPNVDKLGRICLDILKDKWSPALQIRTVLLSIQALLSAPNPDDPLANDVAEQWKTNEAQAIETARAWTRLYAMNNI
Format: functional.

For test [9], the target named is T4, Rac GTPase-activating protein 1 (Homo sapiens, UniProt Q9H0H5).
T4 sequence (Q9H0H5 whole entry): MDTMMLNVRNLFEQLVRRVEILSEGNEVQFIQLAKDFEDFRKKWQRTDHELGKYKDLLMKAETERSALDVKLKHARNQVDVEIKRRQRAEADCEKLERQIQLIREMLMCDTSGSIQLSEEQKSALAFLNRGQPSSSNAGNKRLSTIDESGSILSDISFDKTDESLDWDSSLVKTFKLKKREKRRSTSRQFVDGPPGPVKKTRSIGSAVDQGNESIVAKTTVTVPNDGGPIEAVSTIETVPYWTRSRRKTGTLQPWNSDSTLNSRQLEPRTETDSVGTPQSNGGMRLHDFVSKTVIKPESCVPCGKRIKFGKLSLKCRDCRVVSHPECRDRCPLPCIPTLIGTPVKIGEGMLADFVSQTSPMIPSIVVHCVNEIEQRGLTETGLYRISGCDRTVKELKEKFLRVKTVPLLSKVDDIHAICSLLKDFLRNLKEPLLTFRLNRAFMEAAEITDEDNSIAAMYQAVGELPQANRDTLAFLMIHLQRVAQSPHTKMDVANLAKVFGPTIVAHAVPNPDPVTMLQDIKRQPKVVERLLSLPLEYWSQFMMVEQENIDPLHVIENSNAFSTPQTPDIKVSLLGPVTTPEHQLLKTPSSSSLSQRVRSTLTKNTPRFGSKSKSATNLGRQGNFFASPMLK
Put plainly: MgcRacGAP GTPase-activating activity inhibitors, confirmation, biochemical, ADP Hunter fluorescence, primary and confirmatory (AID 624330). Format: functional.

Calls of active or inactive are those of the source.

Sequence of 72 kDa type IV collagenase (P08253 whole entry): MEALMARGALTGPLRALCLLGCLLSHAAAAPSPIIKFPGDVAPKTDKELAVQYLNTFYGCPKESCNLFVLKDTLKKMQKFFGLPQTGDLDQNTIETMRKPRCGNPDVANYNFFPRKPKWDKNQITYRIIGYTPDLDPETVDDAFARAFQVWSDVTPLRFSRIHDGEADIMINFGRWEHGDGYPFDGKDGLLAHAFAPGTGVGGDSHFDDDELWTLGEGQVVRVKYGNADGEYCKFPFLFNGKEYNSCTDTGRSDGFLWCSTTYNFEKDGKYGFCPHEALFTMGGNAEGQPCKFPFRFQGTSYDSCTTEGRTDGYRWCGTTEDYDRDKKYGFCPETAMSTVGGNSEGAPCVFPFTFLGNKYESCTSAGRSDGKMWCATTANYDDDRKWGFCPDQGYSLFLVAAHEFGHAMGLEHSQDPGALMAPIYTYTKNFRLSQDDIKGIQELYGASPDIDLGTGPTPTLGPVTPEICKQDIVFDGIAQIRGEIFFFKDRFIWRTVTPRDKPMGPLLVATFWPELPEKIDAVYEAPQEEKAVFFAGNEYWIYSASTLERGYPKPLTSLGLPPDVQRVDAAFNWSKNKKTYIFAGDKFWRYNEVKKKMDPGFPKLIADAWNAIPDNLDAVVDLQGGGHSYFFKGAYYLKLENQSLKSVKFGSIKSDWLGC

With `N=C(N)N/N=C/c1ccc(N(c2ccccc2)c2ccccc2)cc1`, the half-maximal inhibitory concentration (IC50) in test [1] was 66.3 µM (active); in test [8] it was 8.24 µM (active); in test [9], 60.7 µM (active). In addition, the results for the half-maximal activity concentration (AC50) in test [2] and in test [6] were 10.8 µM (active) and 7.12 µM (active), respectively. Besides, the EC50 is 9.44 µM (active) in test [3], 8.89 µM (active) in test [4], 18.5 µM (inconclusive) in [5] and 3.39 µM (active) in test [7].

The term IC50 denotes the point on the concentration scale where inhibition reaches its midpoint. In general, AC50 refers to the midpoint of the concentration-response curve, whichever way the signal moves. What is called EC50 is the concentration giving half of the maximal effect.

These data come from ChEMBL document CHEMBL1201862, “PubChem BioAssay data set” (2004).
